Results from paper PMC9609330.
Blank lines part the entries; values can stand above or below the molecule they belong to.

What was measured:
[1] = tested on: AT11-L2 (DNA, G4) TGGTGGTGGTTGTTGTTGGTGGTGGTGGT; assay: CD melting; conditions: K+ 100 mM, 10 mM lithium cacodylate pH 7.2, 10 µM DNA, 2.0 eq. ligand (20 µM)
[2] = tested on: 5′-Cy5-AT11-L2 (DNA, G4) TGGTGGTGGTTGTTGTTGGTGGTGGTGGT; assay: fluorescence titration (Cy5 quenching), Hill fit; conditions: K+ 100 mM, 10 mM lithium cacodylate, 1 µM DNA, apparent KD
[3] = tested on: 5′-Cy5-AT11-L2 (DNA, G4) TGGTGGTGGTTGTTGTTGGTGGTGGTGGT; assay: fluorescence titration (Cy5 quenching), Michaelis–Menten fit; conditions: K+ 100 mM; 10 mM lithium cacodylate; 1 µM DNA; apparent KD
[4] = target: T1, nucleolin RBD1,2 (NCL RBD1,2) (UniProt P19338 307-466); assay: fluorescence titration; PDS (pre-formed G4/ligand complex); Oligonucleotide annealed in 10 mM lithium cacodylate pH 7.2, 100 mM KCl (95 °C 10 min, then ice 10 min); titration temperature not given in the material; conditions: protein: recombinant; label: 5'-Cy5; intramolecular G4, parallel in 100 mM KCl
[5] = target: T1, nucleolin RBD1,2 (NCL RBD1,2); assay: fluorescence titration; 360A (pre-formed G4/ligand complex); Oligonucleotide annealed in 10 mM lithium cacodylate pH 7.2, 100 mM KCl (95 °C 10 min, then ice 10 min); titration temperature not given in the material; conditions: protein: recombinant; label: 5'-Cy5; intramolecular G4, parallel in 100 mM KCl
[6] = target: T1, nucleolin RBD1,2 (NCL RBD1,2); assay: fluorescence titration; PhenDC3 (pre-formed G4/ligand complex); Oligonucleotide annealed in 10 mM lithium cacodylate pH 7.2, 100 mM KCl (95 °C 10 min, then ice 10 min); titration temperature not given in the material; conditions: protein: recombinant; label: 5'-Cy5; intramolecular G4, parallel in 100 mM KCl
[7] = target: T1, nucleolin RBD1,2 (NCL RBD1,2); assay: fluorescence titration; BRACO-19 (pre-formed G4/ligand complex); Oligonucleotide annealed in 10 mM lithium cacodylate pH 7.2, 100 mM KCl (95 °C 10 min, then ice 10 min); titration temperature not given in the material; conditions: protein: recombinant; label: 5'-Cy5; intramolecular G4, parallel in 100 mM KCl
[8] = target: T1, nucleolin RBD1,2 (NCL RBD1,2); assay: fluorescence titration; TMPyP4 (pre-formed complex; TMPyP4 excess disrupts the G4); Oligonucleotide annealed in 10 mM lithium cacodylate pH 7.2, 100 mM KCl (95 °C 10 min, then ice 10 min); titration temperature not given in the material; conditions: protein: recombinant; label: 5'-Cy5; intramolecular G4, parallel in 100 mM KCl

T1 sequence (P19338 307-466): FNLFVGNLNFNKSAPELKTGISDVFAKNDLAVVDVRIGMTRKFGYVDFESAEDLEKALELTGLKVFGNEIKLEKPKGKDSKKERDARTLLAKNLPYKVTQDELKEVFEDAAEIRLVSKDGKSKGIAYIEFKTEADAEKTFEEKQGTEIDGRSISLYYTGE

Molecule: C[n+]1cc(NC(=O)c2ccc3ccc4ccc(C(=O)Nc5cc6ccccc6[n+](C)c5)nc4c3n2)cc2ccccc21
ΔTm [1]: 14.9 °C | KD ([2]; Hill n = 2.2): 1.4 ± 0.085 µM

Molecule: C[n+]1ccc(-c2c3nc(c(-c4cc[n+](C)cc4)c4ccc([nH]4)c(-c4cc[n+](C)cc4)c4nc(c(-c5cc[n+](C)cc5)c5ccc2[nH]5)C=C4)C=C3)cc1
ΔTm ([1]; unfolds G4 at 3.5 eq.): 22.9 °C | KD ([2]; Hill n = 1.2): 1.3 ± 0.15 µM

Molecule: NCCOc1cc(C(=O)Nc2cc(OCCN)c3ccccc3n2)nc(C(=O)Nc2cc(OCCN)c3ccccc3n2)c1
ΔTm [1]: 1.8 °C | KD [3]: 14 ± 4.9 nM

B1: 5'-Cy5-AT11-L2 G4 (structured_DNA)
DNA: TGGTGGTGGTTGTTGTTGGTGGTGGTGGT
Kd [4]: 63 nM | Kd [5]: 6.4 µM | Kd [6]: 18 nM | Kd [7]: 150 nM | Kd [8]: 1.2 nM

Second part, the molecule after the results:

ΔTm [1]: 22.5 °C | KD ([2]; Hill n = 0.9): 5.6 ± 2 µM
Molecule: CN(C)c1ccc(Nc2c3ccc(NC(=O)CCN4CCCC4)cc3nc3cc(NC(=O)CCN4CCCC4)ccc23)cc1

ΔTm [1]: 6.5 °C | KD ([2]; Hill n = 0.6): 31 ± 60 µM
Molecule: C[n+]1cc(NC(=O)c2cccc(C(=O)Nc3cc4ccccc4[n+](C)c3)n2)cc2ccccc21
